Test system: HCT116
Assay: efficacy (fitted maximal change in viability relative to DMSO control); higher = less cytotoxic (negative = loss of viability)
Conditions: 48 h
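Note: Luminescence-based viability readout, five doses per compound, normalized against on-plate DMSO and empty-well controls, followed by dose-response curve fitting for every drug.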

First: c1ccc(-c2nn3c(c2-c2ccnc4cc(OCCN5CCOCC5)ccc24)CCC3)nc1
Second: Cc1nn(C)c(COc2ccc(N3CCN([S+](=O)([O-])N(C)C)CC3)cc2)c1-c1cccc2c(CCCOc3cccc4ccccc34)c(C(=O)O)n(CCN3CCOCC3)c12
The efficacy of the first is lower: -41.1% for the first, -17.2% for the second.

Compared with `CC(=O)O/N=C1\C(=O)N(Cc2cc(Cl)ccc2Cl)c2ccc(Cl)cc21`, `COC1=CC=C(Cl)C=C1\C2=C\C(=O)NC(=S)N2CC(N)=O` is higher in efficacy: -71.8% for the first, -13.9% for the second.

Compared with `CC(C)(N[S+](=O)([O-])c1ccc2c(Cl)cnc(NC(=N)N)c2c1)C(=O)O`, `CCN(CC)C(=O)Cc1csc(N[S+](=O)([O-])c2cccc(Cl)c2C)n1` is lower in efficacy: -7.17% for the first, -27.3% for the second.

Compared with `CC(C)(O)CCc1ccc(OCc2cc(-c3cccc(OC(F)F)c3)c3ncccc3c2)cc1`, `CCOC1=CC=C(C=C1)N2C(=O)C3=CC=CN=C3/N=C2/[C@@H](C)N(CC4=CC=CN=C4)C(=O)CC5=CC=C(F)C(=C5)C(F)(F)F` is higher in efficacy: -82% for the first, -9.22% for the second.

Going from `CC(C)N(CCCNC(=O)Nc1ccc(C(C)(C)C)cc1)C[C@H]1O[C@@H](n2ccc3c(N)ncnc32)[C@H](O)[C@@H]1O` to `Cc1cc(NC(=O)Nc2ccc(N(C)C)cc2)c2cc(F)cc(F)c2n1`, the efficacy falls from -31.1% to -37.6%.

Compared with `Cc1nc2cc(C(=O)N3CCC4(CC3)CC(=O)c3c(cnn3C(C)C)C4)ccc2[nH]1`, `O=C1N\N=C(\C[C@@H]2CCN(C2)C(=O)C3CC3)N1C4=CC=C(C=C4)C5=CC=C6OC=CC6=C5` is lower in efficacy: -35.5% for the first, -40.3% for the second.

Going from `Cc1ccc(/C=N/NC(=O)c2ccccc2Oc2ccccc2)o1` to `CCCCOc1ccc(C(=O)Nc2ccc(F)cc2F)cc1`, the efficacy falls from -6.56% to -14.8%.

Compared with `Cc1ccnc(N[S+](=O)([O-])c2ccc(NC(=O)Nc3ccc([S+](=O)([O-])Nc4nccc(C)n4)cc3)cc2)n1`, `O=C(Nc1ccccc1)Nc1ccc(-c2ccc(C(=O)[C@@H]3CCC[C@H]3C(=O)O)cc2)cc1` is higher in efficacy: -21.3% for the first, -8.51% for the second.

First: Cc1ncc(Cl)cc1NCc1ccc(C(=O)NC(CC2CCCC2)C(=O)NC2CC2)s1 (centres undefined)
Second: O=C(NC[C@H](O)CN1CCc2ccccc2C1)c1ccnc(NC2CCC2)c1
The efficacy of the first is lower: -78.2% for the first, -5.9% for the second.

Compared with `CCc1c(C(=O)NNC(=O)[C@@H](O)c2cc(F)cc(F)c2)ccc(O)c1C`, `O=C(NOCCO)c1cc(CN2OCCCC2=O)c(F)c(F)c1Nc1ccc(I)cc1F` is lower in efficacy: -5.46% for the first, -60.6% for the second.

First: CCc1cc(Nc2nccc(-c3c(-c4ccc(OC)c(C(=O)Nc5c(F)cccc5F)c4)nc4ccccn34)n2)c(OC)cc1N1CCC(N2CCN([S+](C)(=O)[O-])CC2)CC1
Second: COC1=C(OC)C=C2C(=CC=NC2=C1)OC3=CC=C(NC(=O)\C4=C\N(C(C)C)C(=O)N(C4=O)C5=CC=C(F)C=C5)C=C3F
The efficacy of the first is lower: -21% for the first, -13.9% for the second.

Compared with `CCCCOCCOc1nc(-c2ccc(C(=O)O)c(F)c2)sc1C`, `COC(=O)N(CC(=O)O)Cc1cccc(OCc2nc(-c3ccc(Cl)cc3)oc2C)c1` is higher in efficacy: -10% for the first, -8.59% for the second.

Going from `CCOc1cc(/C=C2/C(=O)N(c3ccccc3)N=C2C)cc(Cl)c1OCC(=O)OC` to `CN1C(=O)C(=C\C2=C1N=C(NC3=CC=CC(=C3)C(O)=O)N=C2)/C4=C(Cl)C=CC=C4Cl`, the efficacy rises from -22.5% to -10.3%.

Compared with `Cc1cnc(NC(=O)c2cc(Oc3cnc(C(=O)N(C)C)nc3)c3cc(C)oc3c2)cn1`, `COc1cccc(Nc2c(C(N)=O)cnc3c(C)cc([S+](=O)([O-])c4cccc(C(=O)N(C)C)c4)cc23)c1` is lower in efficacy: -6.07% for the first, -45.1% for the second.

First: CN(C)c1ccc(Nc2nc(N)n(C(=O)c3c(F)cccc3F)n2)cc1
Second: O=C(Nc1ccc(F)c(C(F)(F)F)c1)Nc1nnc(-c2ccncc2)s1
The efficacy of the first is lower: -100% for the first, -29% for the second.

Compared with `CN1CCN(c2ccc([N+](=O)[O-])c3no[n+]([O-])c23)CC1`, `COC1(C[S+]([O-])c2ccccc2)CCN(CCc2c[nH]c3ccc(F)cc23)CC1` (centres undefined) is higher in efficacy: -19.8% for the first, -18.2% for the second.

Compared with `Cc1c(-c2c(-c3ccc(F)o3)sc3ncnc(O[C@@H](Cc4ccccc4OCc4ccnn4CC(F)(F)F)C(=O)O)c23)ccc(OCCN2CCN(C)CC2)c1Cl`, `Nc1nc(OC(c2ccc(-c3cccc(F)c3)cc2)C(F)(F)F)cc(-c2ccc(C[C@@H](N)C(=O)O)cc2)n1` (some centres undefined) is lower in efficacy: 9.5% for the first, -26% for the second.

First: CNc1nc(C)nc(N[C@H]2CCC[C@@H](C(=O)NCc3ccc(C#N)cc3C(F)(F)F)C2)n1
Second: COC1CCC(C(=O)c2ccc3nc4c(cc3c2)CCCO4)CC1 (centres undefined)
The efficacy of the first is lower: -20.5% for the first, -17.2% for the second.

Going from `COc1cc(OC)c(NC(=O)Nc2cc(C)on2)cc1Cl` to `C=CC(=O)N[C@H]1CN(c2nc(Nc3cn(C)nc3OC)c3ncn(C)c3n2)C[C@@H]1F`, the efficacy falls from -7.13% to -68%.

Going from `COc1cc[nH]c2ncc(C(=O)C(=O)N3CCN(C(=O)c4ccccc4)C[C@H]3C)c1-2` to `COc1ccc2cc(OCC3(C(=O)O)CN(C(=O)c4ccc(F)cc4)C3)ccc2c1`, the efficacy falls from -10.7% to -11.6%.

Compared with `COc1ccc2c(c1)CC[C@@H](CN(C)CC(=O)O)[C@H]2c1ccccc1`, `O=C(O)c1ccc(CN2CCC(CN[C@@H]3C[C@H]3c3ccccc3)CC2)cc1` is higher in efficacy: -15.5% for the first, -14.1% for the second.

First: CO[C@H]1CC[C@]2(CC1)CC3=C(C=C(C=C3)C4=CN=CC(=C4)C#CC)[C@@]2/5\N=C(C)/C(=N5)N
Second: O=C(O)c1ccc(-c2c[nH]c3ncc(-c4ccccc4)cc23)cc1C1CCCC1
The efficacy of the first is higher: -11.3% for the first, -22.5% for the second.

Compared with `C[C@@H]1CCN(C(=O)N2CCCC2)C[C@@H]1N(C)c1ncnc2[nH]ccc12`, `C=CC(=O)N1C[C@H](Nc2ncnc3[nH]ccc23)CC[C@@H]1C` is lower in efficacy: -8.82% for the first, -26.7% for the second.

Compared with `Cn1cc(-c2ccc3nnc(C(F)(F)c4ccc5ncccc5c4)n3n2)cn1`, `Clc1ccc2ncc(-c3cccc(NC4CNC4)n3)n2c1` is higher in efficacy: -26.2% for the first, -10.1% for the second.

Compared with `Cc1cc(C)c2c(c1)[C@@H](N(Cc1cc(C(F)(F)F)cc(C(F)(F)F)c1)c1nnn(C)n1)CCCN2C[C@H]1CC[C@H](C(=O)O)CC1`, `NC(=O)[C@@H](CC1CC1)[C@@H](CCC(F)(F)F)C(=O)N[C@H]2\N=C(C3=CC=CC=C3)/C4=CC=CC(=C4NC2=O)F` is higher in efficacy: -31.2% for the first, -12.2% for the second.

Compared with `Clc1cccc(-n2nnnc2NCc2ccccc2Oc2ccccn2)c1Cl`, `O=[N+]([O-])c1ccc(-c2nc(-c3ccc(F)cc3)c(-c3ccncc3)[nH]2)cc1` is higher in efficacy: -32% for the first, -23.7% for the second.

Going from `O=C1NC(=O)/C(=C/c2ccc3c(c2)OC(F)(F)O3)S1` to `O=C1NC(=O)/C(=C/c2ccc(-c3ccc(F)cc3O)o2)S1`, the efficacy falls from -22.5% to -29.8%.

Compared with `O=C1CC(c2c[nH]c3ccc(F)cc23)C(=O)N1` (centres undefined), `O=C(NC[C@H](O)CN1CCc2ccccc2C1)c1cc(NC2COC2)ncn1` is higher in efficacy: -7.69% for the first, 13% for the second.

Compared with `NC(=O)c1noc([C@H](CCCC2CCCCC2)CC(=O)NO)n1`, `Nc1nc(N)c2nc(-c3cccc(O)c3)c(-c3cccc(O)c3)nc2n1` is higher in efficacy: -86.4% for the first, -7.47% for the second.

In the case of `c1cc(-c2sc(-c3ccncc3)c(-c3ccncc3)c2-c2ccncc2)ccn1`, the efficacy is reported as -13.8%.

From the supplement of paper PMC10290057
